According to patent US7390836B2, “Small molecules used to increase cell death” (priority 1999, dated 2008):

Tests used:
Jurkat/Bcl-xL cells = test: Cell death in Bcl-xL overexpressing Jurkat cells (MTS, PI, sub-G1, FAM-VAD-fmk); format: cell-based; settings: for sub-G1 DNA: 100 μM BH3I-1 or 30 μM BH3I-2; for dose at which Bcl-xL overexpression gave no protection / doses from which Bcl-xL overexpression provided protection: 48 hr, MTS or PI
Method: If BH3Is act through inhibiting the function of anti-apoptotic members of Bcl-2 family, overexpression of Bcl-xL should provide protection against BH3Is, which can be overcome by increased amount of BH3Is. Furthermore, Bcl-xL overexpressing cells. should still undergo apoptosis when treated with a high enough dose of a BH3I to overcome the protection by Bcl-xL. To test this theory, Jurkat/Bcl-xL cells were treated with BH3I-1 and BH3I-2 for 48 hr. Cell death was determined using the MTS assay (FIG. 9A) or PI staining (FIG. 9B). Overexpression of Bcl-xL provided protection for Jurkat cells from lower doses of BH3Is (up to 40 μM of BH3I-2 and up to 100 μM of BH3I-1). Overexpression of Bcl-xL, however, gave no protection after treatment with 80 μM of BH3I-2 or 200 μM of BH3I-1. […] Caspases were activated in Hoechst-positive dying cells following treatment with high doses of BH3Is.

Jurkat cells = test: Apoptosis in Jurkat cells (TUNEL, sub-G1 DNA, Annexin V); format: cell-based; settings: BH3I-1 100 μM, BH3I-2 30 μM; for TUNEL staining: 48 hr; for sub-G1 DNA content: 72 hr, PI, FACS
Method: FIG. 6C is a series of FACS analysis graphs showing Annexin V staining of Jurkat cells. Jurkat cells were treated with BH3I-1 (100 μM) or BH3I-2 (30 μM) and were stained 4 or 6 hr later with Annexin V-EGFP/PI. The relative amounts of live, apoptotic, and late apoptotic/necrotic cells are shown.
To further examine the ability of BH3Is to induce apoptosis, Jurkat cells were treated with BH3I-1 (100 μM) (FIG. 6A, panels a and b), BH3I-2 (30 μM) (FIG. 6A, panels c and d) or DMSO (FIG. 6A, panels e and f) for 48 hr. The cells were then stained using Hoechst dye and a FragEL TUNEL kit (Oncogene Research Products). […] This was determined by treating Jurkat cells with BH3I-1 (100 μM) or BH3I-2 (30 μM), fixing them 72 hr later, and staining them with propidium iodide (PI). The samples were analyzed by FACS. Finally, BH3Is induced the appearance of Annexin V binding without an increase in PI staining (FIG. 6C).

[1] = target: T1, U2AF35 / U2AF65 interaction (Homo sapiens, UniProt Q01081); test: Pulldown of splicing factors (specificity control); format: binding; settings: selectivity control
T1 construct: made in house; host or cells: U2AF65: TNT wheat germ lysate (Promega)
T1 sequence (Q01081 1-240): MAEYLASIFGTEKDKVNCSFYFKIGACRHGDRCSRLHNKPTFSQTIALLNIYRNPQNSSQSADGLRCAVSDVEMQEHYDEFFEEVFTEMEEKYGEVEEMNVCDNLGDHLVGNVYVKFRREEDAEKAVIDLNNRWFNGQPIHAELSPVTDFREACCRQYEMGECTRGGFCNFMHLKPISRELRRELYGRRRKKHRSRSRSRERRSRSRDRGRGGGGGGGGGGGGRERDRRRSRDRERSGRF
Method: Next, it was determined whether BH3Is could disrupt the heterodimerization of Bcl-xL with pro-apoptotic proteins from the Bcl-2 family, such as truncated Bid (tBid). Truncation of Bid by caspase-8 activates Bid and dramatically increases its affinity towards anti-apoptotic Bcl-2 family members (Li et al., Cell 94:491-501, 1998). To perform this study, in vitro translation of tBid or U2AF^65 (control) was performed using TNT® Coupled Reticulocyte and Wheat Germ Lysate Systems (Promega) respectively. Bcl-xL, U2AF^35 (control) or corresponding amounts of original Ni-NTA agarose beads (blank) were pre-incubated with the BH3 inhibitors or peptide in 100 μl of PBS for 30 min at 25° C. Then 1 μl of ^35S-labeled tBID or U2AF^65 was added and incubation was continued for 2 hr at 4° C. The samples were subjected to SDS-PAGE, coomassie blue staining and autoradiography.
To determine the specificity of BH3Is, their ability to inhibit other protein-protein interactions was tested using the pulldown assay described above and the splicing factors U2AF^35 and U2AF^65 (Zhang et al, Proc. Natl. Acad. Sci. USA 89:8769-73, 1992). […] BH3Is (80 μM) also had no effect on the interaction between the Apaf-1 CARD domain fragment and caspase-9 in the SELDI assay.

[2] = test system: HeLa cells that stably overexpress human BCL-XL; test: Cell death by ATP levels in Bcl-xL overexpressing cells after zVAD-fmk pretreatment; format: cell-based; settings: zVAD-fmk 100 μM pretreatment, 48 or 72 hours
Method: In another study, HeLa cells that stably overexpress human BCL-XL, and are therefore more resistant to cell death, were pretreated with zVAD-fmk (100 μM) for 1 hour, as described above. Each of the chemical compounds BH3I-1, BH3I-1′, and BH3I-2 from the ChemBridge library was then added to the media of the cells of three separate samples. After 48 or 72 hours of exposure of the cells to zVAD-fmk and the chemical compound, the level of cell death was measured for each sample, by measuring cellular ATP levels.

Row | Structure (SMILES) | sub-G1 DNA (Jurkat/Bcl-xL cells) | dose at which Bcl-xL overexpression gave no protection (Jurkat/Bcl-xL cells) [µM] | doses from which Bcl-xL overexpression provided protection (Jurkat/Bcl-xL cells) | TUNEL staining (Jurkat cells) | sub-G1 DNA content (Jurkat cells) | effect on interaction between splicing factors [1] | cellular ATP levels [2]
1 | CC(C)C(C(=O)O)N1C(=O)C(=Cc2ccc(Br)cc2)SC1=S (stereo in doubt) [BH3I-1] | induced the appearance of sub-GI DNA | 200 | up to 100 μM | TUNEL positivity | displayed sub-G1 DNA content | Neither BH3I-1 nor BH3I-2 affected the interaction | cellular ATP levels decreased
2 | O=C(Nc1cc(S(=O)(=O)c2ccc(Cl)cc2)ccc1Cl)c1cc(Cl)cc(Br)c1O [BH3I-2] | induced the appearance of sub-GI DNA | 80 | up to 40 μM | TUNEL positivity | displayed sub-G1 DNA content | Neither BH3I-1 nor BH3I-2 affected the interaction | cellular ATP levels decreased
